Experimental data published in publication PMC8878468, “Image-Based Annotation of Chemogenomic Libraries for Phenotypic Screening” (Molecules, 2022).
Structures can show the parent of a compound that is named as a salt. Where two headings read alike, the source gives them in different places.

Key:
[1] = test system: U2OS cells; assay: Multiplex high-content protocol (nuclei gating, tubulin, mitochondrial mass, membrane permeability); assay type: cell-based, human; settings: for marked for tubulin effects while crossing no other phenotypic threshold / mitochondrial mass increase detected: threshold > 50%; for viability at 1 µM: Homo sapiens, read-out: healthy nuclei; for increase in mitochondrial mass in comparison to DMSO / tubulin effect: healthy nuclei only
Procedure: Using the CQ1 high-content confocal microscope (Yokogawa), cellular shape and fluorescence was measured before and 12 h as well as 24 h after compound treatment. All compounds were diluted in DMSO to a concentration of 10 mM.
The rather large spacing distance was used to create a robust readout, compensating potential plate variations and enabling automated screening without the use of autofocus. The overlap of the fluorescence emission spectra of the dyes was neglectable for all but the MitoTracker Red and Annexin V Alexa Fluor 680 (Supplementary Figure S9).
All images were analyzed using the CellPathfinder software (Yokogawa). Segmentation of cells was performed as described earlier. First, the cells are classified in Hoechst High Intensity Objects or Normal Intensity Objects (Supplementary Table S7). All normal gated cells are further classified in healthy, fragmented or pyknosed nuclei (Supplementary Table S7). The pyknosed cells are gated in mitotic or apoptotic cells using seven features for the cell body and five features for the cell nuclei according to their Annexin V staining intensity (Supplementary Table S7). All cells that were classified as including a healthy nucleus are further gated into three phenotypic classes. […] Growth rate was calculated against non-treated cells and cells treated with DMSO 0.1% [61].

[2] = test system: U2OS cells; assay: cells; settings: Homo sapiens
[3] = test system: HCT116-FUCCI cells; assay: FUCCI cell cycle assay with nuclear gating; assay type: cell-based, human; settings: 10 µM, up to 70 h
Procedure: For generation of a stable cell line, including the florescent ubiquitination-base cell cycle indicator FUCCI, the plasmid-based transposon system Sleeping Beauty was used. Vector (pSBbi_Fucci) and the Transposase SB100X have been described previously. […] Two days after transfection, cells were selected over 10 days using puromycin (1 µg/mL) and cultivated afterwards for two more weeks in McCoys 5A plus L-Glutamine (Gibco) supplemented by 10% FBS (Gibco) and Penicillin/Streptomycin (Gibco).
Fluorescence and cellular shape were measured before and after compound treatment for 72 h every 12 h using the CQ1 high-content confocal microscope (Yokogawa). […]
Image analysis was performed using the CellPathfinder software (Yokogawa). Segmentation of cells was performed as described earlier. First, the cells are classified in Hoechst High Intensity Objects or Normal Intensity Objects (Supplementary Table S7). All normal gated cells are further classified in healthy, fragmented or pyknosed nuclei (Supplementary Table S7). […] Total cell count was normalized against total cell count of cells treated with 0.1% DMSO.

[4] = test system: HCT116-FUCCI cells; design: method as in per compound as in column reference of Table S3; settings: literature annotation in Table S3; ref per compound as in Table S3; cited from earlier work

Nc1ccc(C(=O)Nc2cccc(-c3nc(N4CCOCC4)c4oc5ncccc5c4n3)c2)cn1 [YM-201636]
marked for tubulin effects while crossing no other phenotypic threshold ([1]; U2OS, 1 µM): marked to have tubulin effects

C[C@@H]1CC[C@@]2(OC1)O[C@H]1[C@@H](O)[C@H]3[C@@H]4CC[C@H]5C[C@@H](O[C@@H]6O[C@H](CO)[C@H](O[C@@H]7O[C@H](CO)[C@@H](O)[C@H](O[C@@H]8OC[C@@H](O)[C@H](O)[C@H]8O)[C@H]7O[C@@H]7O[C@H](CO)[C@H](O)[C@H](O[C@@H]8O[C@H](CO)[C@@H](O)[C@H](O)[C@H]8O)[C@H]7O)[C@H](O)[C@H]6O)[C@H](O)C[C@]5(C)[C@H]4CC[C@]3(C)[C@H]1[C@@H]2C [digitonin]
healthy nuclei (healthy cells) ([1]; U2OS, 10 µM, 24 h): more than 50%
IC50 ([2]; 14 h, read-out: IC 50 14 h): 10.6 µM
IC50 ([2]; 26 h, read-out: IC 50 26 h): 11.6 µM
IC50 ([2]; 42 h, read-out: IC 50 42 h): 11.5 µM
IC50 ([2]; 56 h, read-out: IC 50 56 h): 15.1 µM

Nc1ncnc2c1c(-c1cccc(OCc3ccccc3)c1)cn2[C@H]1C[C@@H](CN2CCC2)C1 [NVP-AEW541]
mitochondrial mass increase detected ([1]; U2OS, 1 µM): mitochondrial mass increase

CCOC(=O)c1c(C)[nH]c2ccc3c(c12)CN1CCc2cc(OC)ccc2C1O3 (stereo not shown) [PD 102807]
mitochondrial mass increase detected ([1]; U2OS, 1 µM): mitochondrial mass increase

CC[C@@H]1C(=O)N(C)c2cnc(Nc3ccc(C(=O)N[C@H]4CC[C@H](N5CCN(CC6CC6)CC5)CC4)cc3OC)nc2N1C(C)C [volasertib]
viability at 1 µM ([1]; U2OS, 1 µM, 24 h): ≤ 40%

CNCc1ccc(-c2cc(-c3nc(-c4ccc(S(=O)(=O)C(C)C)cc4)cnc3N)on2)cc1 [berzosertib]
Hoechst High Intensity Objects (Hoechst intensity compared to normal nuclei) ([1]; U2OS, 1 µM): more than 50%
IC50 ([2]; 14 h, read-out: IC 50 14 h): 0.0627 µM
IC50 ([2]; 26 h, read-out: IC 50 26 h): 0.0641 µM
IC50 ([2]; 42 h, read-out: IC 50 42 h): 0.0587 µM
IC50 ([2]; 56 h, read-out: IC 50 56 h): 0.0565 µM

C[C@@]1(C(=O)Nc2ccc(F)nc2)CCCN1c1nc(Nc2cc(C3CC3)n[nH]2)c2cccn2n1 [BMS-754807]
viability at 1 µM ([1]; U2OS, 1 µM, 24 h): ≤ 40%

Nc1c(C(=O)NCc2ccc(C(=O)NCCCC3CCCCC3)cc2)cnn1-c1ccccc1 [SR-318]
marked for tubulin effects while crossing no other phenotypic threshold ([1]; U2OS, 1 µM): marked to have tubulin effects
healthy nuclei (healthy cells) ([1]; U2OS, 10 µM, 24 h): over 80%
increase in mitochondrial mass in comparison to DMSO ([1]; U2OS, 10 µM, 24 h): over 60%
tubulin effect ([1]; U2OS, 10 µM, 24 h): more than 90%

O=C(CCCCCCNC(=O)c1cnc(N(c2ccccc2)c2ccccc2)nc1)NO [ricolinostat]
IC50 ([2]; 26 h, read-out: IC 50 26 h): 13.5 µM
IC50 ([2]; 42 h, read-out: IC 50 42 h): 13.4 µM
IC50 ([2]; 56 h, read-out: IC 50 56 h): 13.7 µM

C=CCn1c(=O)c2cnc(Nc3ccc(N4CCN(C)CC4)cc3)nc2n1-c1cccc(C(C)(C)O)n1 [adavosertib]
viability at 1 µM ([1]; U2OS, 1 µM, 24 h): ≤ 40%

COc1ncc(-c2ccc3nccc(-c4ccnnc4)c3c2)cc1NS(=O)(=O)c1ccc(F)cc1F [omipalisib]
viability at 1 µM ([1]; U2OS, 1 µM, 24 h): ≤ 40%
decrease of healthy nuclei count ([1]; U2OS, 1 µM): more than 60%

CC(=O)Nc1cccc(-n2c(=O)n(C3CC3)c(=O)c3c(Nc4ccc(I)cc4F)n(C)c(=O)c(C)c32)c1 [trametinib]
change of FUCCI nuclei population in comparison to DMSO [3]: increase in red nuclei

CCC1=C[C@@H]2CN(C1)Cc1c([nH]c3ccccc13)[C@@](C(=O)OC)(c1cc3c(cc1OC)N(C)[C@H]1[C@@](O)(C(=O)OC)[C@H](OC(C)=O)[C@]4(CC)C=CCN5CC[C@]31[C@@H]54)C2 [vinorelbine tartrate]
tubulin effect ([1]; U2OS, 10 µM, 24 h): increased tubulin effects

CCOc1cc(C(=O)N2CCC(N3CCN(C)CC3)CC2)ccc1Nc1ncc2c(n1)N(C1CCCC1)c1ccccc1C(=O)N2C [XMD17-109]
mitochondrial mass increase detected ([1]; U2OS, 1 µM): mitochondrial mass increase

CN1CCN(Cc2cc(NC(=O)c3ccc4c(c3)CN(c3ccccc3)CC4)cc(C(F)(F)F)c2)CC1 [DDR-TRK-1N]
healthy nuclei ([1]; U2OS, 1 µM, 24 h): ≤ 40%

Cc1cc(C)c(-n2ccn3nc(-c4cccnc4)cc23)cc1NC(=O)c1cc(C#N)cc(S(F)(F)(F)(F)F)c1 [BAY-826]
marked for tubulin effects while crossing no other phenotypic threshold ([1]; U2OS, 1 µM): marked to have tubulin effects

CN1CCN(Cc2ccc(Nc3ncc(Cl)c(Nc4ccccc4S(=O)(=O)N(C)C)n3)cc2)CC1 [TP0903]
viability at 1 µM ([1]; U2OS, 1 µM, 24 h): ≤ 40%
decrease of healthy nuclei count ([1]; U2OS, 1 µM): more than 60%

c1ccc2oc(-c3csc(C4CCN(Cc5nc6ncccc6[nH]5)CC4)n3)cc2c1 [BAY-179]
healthy nuclei (healthy cells) ([1]; U2OS, 10 µM, 24 h): over 80%
increase in mitochondrial mass in comparison to DMSO ([1]; U2OS, 10 µM, 24 h): over 60%

C=CC(=O)Nc1cccc(Oc2nc(Nc3ccc(N4CCN(C)CC4)cc3OC)ncc2Cl)c1 [WZ-4002]
effect on tubulin ([1]; 1 µM, 12 h): effect on tubulin
membrane permeabilization effects ([1]; U2OS, 1 µM, 24 h): membrane permeabilization

CN[C@@H]1C[C@H]2O[C@@](C)([C@@H]1OC)n1c3ccccc3c3c4c(c5c6ccccc6n2c5c31)C(=O)NC4 [staurosporine]
mitochondrial mass, first analysis gating all cells independently of viability ([1]; 10 µM): increased mitochondrial mass
tubulin effect, first analysis gating all cells independently of viability ([1]; 10 µM): tubulin effects
healthy nuclei (healthy cells) ([1]; U2OS, 10 µM, 24 h): less than 50%
known cell cycle effect [4]: dose-dependent cell

Cc1[nH]c(/C=C2\C(=O)Nc3ccc(S(=O)(=O)N(C)c4cccc(Cl)c4)cc32)c(C)c1C(=O)N1CCN(C)CC1 [SU11274]
marked for tubulin effects while crossing no other phenotypic threshold ([1]; U2OS, 1 µM): marked to have tubulin effects

COc1cc2ncnc(Nc3ccc(F)c(Cl)c3)c2cc1NC(=O)/C=C/CN1CCCCC1 [PF-299804]
membrane permeabilization effects ([1]; U2OS, 1 µM, 24 h): more than 65%
marked for tubulin effects while crossing no other phenotypic threshold ([1]; U2OS, 1 µM): marked to have tubulin effects

Cc1[nH]c2ccccc2c1CCNCc1ccc(/C=C/C(=O)NO)cc1 [Panobinostat]
known cell cycle effect [4]: G 1/S cell cy cle arrest

COc1cc(Nc2ccnc3ccc(Br)cc23)cc(OC)c1OC [SGC-GAK-1]
mitochondrial mass increase detected ([1]; U2OS, 1 µM): mitochondrial mass increase

CCn1cc(-c2ccnc3[nH]c(-c4cccc(CN(C)C)c4)cc23)c(-c2ccc(NC(=O)N(C)C)cc2)n1 [GSK1070916]
mitochondrial mass increase detected ([1]; U2OS, 1 µM): mitochondrial mass increase

CN([C@@H](Cc1ccc(OS(=O)(=O)c2cccc3cnccc23)cc1)C(=O)N1CCN(c2ccccc2)CC1)S(=O)(=O)c1cccc2cnccc12 [KN-62]
tubulin effects ([1]; U2OS, 1 µM): > 90%

CCNc1cc(NC2CCC(O)CC2)nc(Nc2ccc3c(ccn3Cc3ccccc3)c2)n1 (stereo not shown) [CINK4]
marked for tubulin effects while crossing no other phenotypic threshold ([1]; U2OS, 1 µM): marked to have tubulin effects

Cc1cc(C)cc(-c2cnc3cc(Cl)c(-c4cccc(O)c4)cc3c2OCCCN)c1 [TC-G 1003]
mitochondrial mass increase detected ([1]; U2OS, 1 µM): mitochondrial mass increase

Cc1c(P(=S)(c2ccccc2)c2ccccc2)n2ccccc2[n+]1C/C=C/c1ccccc1 [ML154]
viability at 1 µM ([1]; U2OS, 1 µM, 24 h): ≤ 40%

CC[C@@]1(O)C(=O)OCc2c1cc1n(c2=O)Cc2cc3c(CN(C)C)c(O)ccc3nc2-1 [topotecan]
change of FUCCI nuclei population in comparison to DMSO [3]: increase in green nuclei
mitochondrial mass increase detected ([1]; U2OS, 1 µM): mitochondrial mass increase
healthy nuclei (healthy cells) ([1]; U2OS, 10 µM, 24 h): less than 50%
Hoechst High Intensity Objects ([1]; U2OS, 10 µM, after 24 h, in one of two biological replicates): > 30%

CN1CCCC(n2nc(Cc3ccc(Cl)cc3)c3ccccc3c2=O)CC1 (stereo not shown) [azelastine]
mitochondrial mass increase detected ([1]; U2OS, 1 µM): mitochondrial mass increase

COc1cc2c(Nc3ccc(NC(=O)c4ccccc4)cc3)ncnc2cc1OCCCN1CCOCC1 [ZM447439]
marked for tubulin effects while crossing no other phenotypic threshold ([1]; U2OS, 1 µM): marked to have tubulin effects

CCN1CCN(c2ccc(Nc3cc(N(C)C(=O)Nc4c(Cl)c(OC)cc(OC)c4Cl)ncn3)cc2)CC1 [infigratinib]
viability at 1 µM ([1]; U2OS, 1 µM, 24 h): ≤ 40%

CS(=O)(=O)N1CCCC(NC(=O)[C@H](CCC2CCCCC2)NC(=O)c2ccc(CNC(=O)c3cnc4ccccn34)cc2)C1 (stereo partly shown) [SR-302]
tubulin effect ([1]; U2OS, 10 µM, 24 h): more than 90%

Cc1ccc(NC(=O)Nc2cc(C(F)(F)F)ccc2F)cc1Nc1ccc2c(c1)NC(=O)/C2=C\c1ccc[nH]1 [GNF-5837]
viability at 1 µM ([1]; U2OS, 1 µM, 24 h): ≤ 40%
decrease of healthy nuclei count ([1]; U2OS, 1 µM): more than 60%

CC(C)Oc1ccccc1C(=O)Nc1ccccc1C(=O)Nc1cccc(S(=O)(=O)C(F)(F)F)c1 [ML-290]
mitochondrial mass increase detected ([1]; U2OS, 1 µM): mitochondrial mass increase
